Experimental data published in US9321764B2, “Dihydro-pyrrolopyridinone inhibitors” (AbbVie Inc., priority 2013, dated 2016).

Columns and labels:
BRD4 (BDI_K57-E168) = target: T1, BRD4 (BDI_K57-E168) (Homo sapiens, UniProt O60885); assay: TR-FRET bromodomain binding assay, first bromodomain of BRD4; conditions: His-tagged BD1, 100 nM Alexa647 probe; TR-FRET protocol A-E given per row
T1 construct: BD1: amino acids K57-E168; made in house
Method in brief: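 His-tagged BRD4 BD1 (K57-E168), 8 nM, with 1 nM Eu-anti-His antibody and 100 nM Alexa647-labelled BET-inhibitor probe in pH 6.0 phosphate buffer, 2% DMSO. TR-FRET read after 1 h at room temperature. IC50 from 4-parameter fit, converted to Ki using probe Kd and concentration.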

BRD4 (BDII_E352-M457) = target: T2, BRD4 (BDII_E352-M457) (Homo sapiens, UniProt O60885); assay: TR-FRET bromodomain binding assay, second bromodomain of BRD4; conditions: His-tagged BD2, 30 nM Alexa647 probe; TR-FRET protocol A-E given per row
T2 construct: proliferation; Protocol; made in house
Method in brief: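 His-tagged BRD4 BD2 ([…]) competed against an Alexa647-labelled BET-inhibitor probe in TR-FRET. Buffer was 20 mM sodium phosphate pH 6.0, 50 mM NaCl, 1 mM EDTA, 0.01% Triton X-100, 1 mM DTT, with method D DMSO series of 2.5 mM–800 nM (stock range). IC50 from 4-parameter fit, Ki from probe Kd and concentration.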

[1] = tested on: breast cancer cell line MX-1; assay: MX-1 cell line proliferation assay; type: cell-based; conditions: Homo sapiens, MX1, 72 h, MX-1 cells, 3-day proliferation assay, Cell Titer Glo; read-out: Cellular proliferation EC50
Method in brief: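 Cells seeded at 5000/well in RPMI 1640 with 10% FBS, allowed to adhere overnight at 37 °C, then exposed to compound at final 0.0001–3 μM for 3 days. Viability read by Cell Titer Glo luminescence, normalized to DMSO controls; EC50 from sigmoidal curve fit.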

[2] = tested on: LPS induced IL-6 production; assay: LPS (lipopolysaccharide) induced IL-6 production mouse assay; type: in vivo; conditions: read-out: Inhibition of LPS induced IL-6 production, % inhibition at 3 mg/kg, 3 mg/kg oral, one hour before LPS 2.5 mg/kg i.p., serum IL-6 2 hours after LPS, SCID female mice, all p < 0.05
Description: Compounds of the Examples listed in Table 2 were assayed for their ability to inhibit LPS (lipopolysaccharide) induced IL-6 (Interleukin-6) production in mice. Fox Chase SCID® female mice (Charles Rivers Labs, 5 per group) received an intraperitoneal challenge of lipopolysaccharide (2.5 mg/kg, L2630 E. coli 0111:B4) one hour after oral administration of compounds. Mice were euthanized 2 hours after lipopolysaccharide injection, blood was removed by cardiac puncture, and then the serum harvested from the blood samples was frozen at −80° C. On the day of the assay the serum samples were brought to room temperature and then diluted 1:20 in phosphate-buffered saline containing 2% bovine serum albumin. Interleukin-6 measurements were performed using a cytokine assay from Meso Scale Discovery (Gaithersburg, Md.) for mouse serum analysis according to the manufacturer's protocol and read on a SECTOR Imager 6000 (Meso Scale Discovery, Gaithersburg, Md.) instrument. Statistical analysis was performed using Prism software (version 5.0) incorporating Dunnett's one way ANOVA. The IL-6 mean and standard deviation of the group of vehicle treated animals were compared with the IL-6 mean and standard deviation of the group treated with drug. A p value <0.05 means that there is less than a 5% probability that the mean values in the two groups are equal.

Compound | Ki (BRD4 (BDI_K57-E168)) | Ki (BRD4 (BDII_E352-M457)) | EC50 [1] | inhibition in vivo at 3 mg/kg [2]
Cn1cc(-c2cc(NS(C)(=O)=O)ccc2Oc2ccc(C#N)cc2)c2cc[nH]c(=O)c21 [Example 16, N-[4-(4-cyanophenoxy)-3-(1-methyl-7-oxo-6,7-dihydro-1H-pyrrolo[2,3-c]pyridin-3-yl)phenyl]methanesulfonamide] | 2.1 nM | 27 nM | 59 nM | 69%
CCS(=O)(=O)Cc1ccc(Oc2ccc(F)cc2F)c(-c2cn(C)c3c(=O)[nH]ccc23)c1 [Example 53, 3-{2-(2,4-difluorophenoxy)-5-[(ethylsulfonyl)methyl]phenyl}-1-methyl-1,6-dihydro-7H-pyrrolo[2,3-c]pyridin-7-one] | 3.2 nM | 6.6 nM | 39 nM | 74%
COc1ccccc1S(=O)(=O)NCc1ccc(Oc2ccc(F)cc2F)c(-c2cn(C)c3c(=O)[nH]ccc23)c1 [Example 130, N-[4-(2,4-difluorophenoxy)-3-(1-methyl-7-oxo-6,7-dihydro-1H-pyrrolo[2,3-c]pyridin-3-yl)benzyl]-2-methoxybenzenesulfonamide] | 247 nM | 1150 nM | > 3000 nM | 
CCS(=O)(=O)Nc1ccc(Oc2ccc(F)cc2F)c(-c2cn(C)c3c(=O)[nH]c(C(=O)N4CCCC4)cc23)c1 [Example 193, N-{4-(2,4-difluorophenoxy)-3-[1-methyl-7-oxo-5-(pyrrolidin-1-ylcarbonyl)-6,7-dihydro-1H-pyrrolo[2,3-c]pyridin-3-yl]phenyl}ethanesulfonamide] | 4.3 nM | 41.3 nM | 111 nM | 
Cc1cccnc1CNc1ccc(Oc2ccc(F)cc2F)c(-c2cn(C)c3c(=O)[nH]ccc23)c1 [Example 169, 3-[2-(2,4-difluorophenoxy)-5-{[(3-methylpyridin-2-yl)methyl]amino}phenyl]-1-methyl-1,6-dihydro-7H-pyrrolo[2,3-c]pyridin-7-one] | 26.5 nM | 107 nM | 132 nM | 
CCS(=O)(=O)Nc1ccc(Oc2ccc(Cl)cc2)c(-c2cn(C)c3c(=O)[nH]ccc23)c1 [Example 5, N-[4-(4-chlorophenoxy)-3-(1-methyl-7-oxo-6,7-dihydro-1H-pyrrolo[2,3-c]pyridin-3-yl)phenyl]ethanesulfonamide] | 10 nM | 29 nM | 67 nM | 
Cn1cc(-c2cc(CS(C)(=O)=O)ccc2NCC2CC2)c2cc[nH]c(=O)c21 [Example 110, 3-{2-[(cyclopropylmethyl)amino]-5-[(methylsulfonyl)methyl]phenyl}-1-methyl-1,6-dihydro-7H-pyrrolo[2,3-c]pyridin-7-one] | 61 nM | 215 nM | 136 nM | 
Cn1cc(-c2cc(CS(=O)(=O)N3CCCCC3)ccc2Oc2ccc(F)cc2F)c2cc[nH]c(=O)c21 [Example 103, 3-{2-(2,4-difluorophenoxy)-5-[(piperidin-1-ylsulfonyl)methyl]phenyl}-1-methyl-1,6-dihydro-7H-pyrrolo[2,3-c]pyridin-7-one] | 8.4 nM | 4.9 nM | 89 nM | 
Cn1cc(-c2cc(CCl)ccc2Oc2ccc(F)cc2F)c2cc[nH]c(=O)c21 [Example 120, 3-[5-(chloromethyl)-2-(2,4-difluorophenoxy)phenyl]-1-methyl-1,6-dihydro-7H-pyrrolo[2,3-c]pyridin-7-one] | 77 nM | 208 nM | 306 nM | 
Cn1cc(-c2cc(S(C)(=O)=O)ccc2OCCC(C)(C)C)c2cc[nH]c(=O)c21 [Example 40, 3-[2-(3,3-dimethylbutoxy)-5-(methylsulfonyl)phenyl]-1-methyl-1,6-dihydro-7H-pyrrolo[2,3-c]pyridin-7-one] | 23 nM | 64 nM | 87 nM | 
Cn1cc(-c2cc(CN3CCC(N)CC3)ccc2Oc2ccc(F)cc2F)c2cc[nH]c(=O)c21 [Example 111, 3-{5-[(4-aminopiperidin-1-yl)methyl]-2-(2,4-difluorophenoxy)phenyl}-1-methyl-1,6-dihydro-7H-pyrrolo[2,3-c]pyridin-7-one] | 908 nM | 337 nM | 713 nM | 
CCS(=O)(=O)Nc1ccc(Oc2ccc(F)cc2F)c(-c2cn(C)c3c(=O)[nH]c(C(=O)NCCCO)cc23)c1 [Example 190, 3-{2-(2,4-difluorophenoxy)-5-[(ethylsulfonyl)amino]phenyl}-N-(3-hydroxypropyl)-1-methyl-7-oxo-6,7-dihydro-1H-pyrrolo[2,3-c]pyridine-5-carboxamide] | 2.01 nM | 3.85 nM | 82 nM | 

Now from value to compound, other results behind:

Ki (BRD4 (BDI_K57-E168)) | Ki (BRD4 (BDII_E352-M457)) | EC50 [1] | Compound | inhibition in vivo at 3 mg/kg [2]
16 nM | 6.2 nM | 37 nM | Cn1cc(-c2cc(CS(C)(=O)=O)cnc2Oc2ccc(F)cc2F)c2cc[nH]c(=O)c21 [Example 60, 3-{2-(2,4-difluorophenoxy)-5-[(methylsulfonyl)methyl]pyridin-3-yl}-1-methyl-1,6-dihydro-7H-pyrrolo[2,3-c]pyridin-7-one] | 62%
14 nM | 60 nM | 80 nM | Cn1cc(-c2cc(S(C)(=O)=O)ccc2OC2CCC(F)(F)CC2)c2cc[nH]c(=O)c21 [Example 25, 3-{2-[(4,4-difluorocyclohexyl)oxy]-5-(methylsulfonyl)phenyl}-1-methyl-1,6-dihydro-7H-pyrrolo[2,3-c]pyridin-7-one] | 62%
6.1 nM | 11 nM | 127 nM | Cn1cc(-c2cc(S(C)(=O)=O)ccc2OCCC2CC2)c2cc[nH]c(=O)c21 [Example 32, 3-[2-(2-cyclopropylethoxy)-5-(methylsulfonyl)phenyl]-1-methyl-1,6-dihydro-7H-pyrrolo[2,3-c]pyridin-7-one] | 33%
8.9 nM | 31 nM | 37 nM | Cn1cc(-c2cc(NS(C)(=O)=O)c(F)cc2Oc2ccc(F)cc2F)c2cc[nH]c(=O)c21 [Example 11, N-[4-(2,4-difluorophenoxy)-2-fluoro-5-(1-methyl-7-oxo-6,7-dihydro-1H-pyrrolo[2,3-c]pyridin-3-yl)phenyl]methanesulfonamide] | 66%
15 nM | 120 nM | 384 nM | Cn1cc(-c2cc(S(C)(=O)=O)ccc2OC2CCOC2)c2cc[nH]c(=O)c21 (stereo not drawn) [Example 22, 1-methyl-3-[5-(methylsulfonyl)-2-(tetrahydrofuran-3-yloxy)phenyl]-1,6-dihydro-7H-pyrrolo[2,3-c]pyridin-7-one] | 
18 nM | 165 nM | 181 nM | Cn1cc(-c2cc(S(C)(=O)=O)ccc2OCC2CC2)c2cc[nH]c(=O)c21 [Example 20, 3-[2-(cyclopropylmethoxy)-5-(methylsulfonyl)phenyl]-1-methyl-1,6-dihydro-7H-pyrrolo[2,3-c]pyridin-7-one] | 
1.6 nM | 6.4 nM | 33 nM | CCS(=O)(=O)Nc1ccc(OC2CCC(F)(F)CC2)c(-c2cn(C)c3c(=O)[nH]ccc23)c1 [Example 8, N-{4[(4,4-difluorocyclohexyl)oxy]-3-(1-methyl-7-oxo-6,7-dihydro-1H-pyrrolo[2,3-c]pyridin-3-yl)phenyl}ethanesulfonamide] | 
4 nM | 16 nM | 93 nM | CCS(=O)(=O)Nc1ccc(OC2CCOCC2)c(-c2cn(C)c3c(=O)[nH]ccc23)c1 [Example 7, N-[3-(1-methyl-7-oxo-6,7-dihydro-1H-pyrrolo[2,3-c]pyridin-3-yl)-4-(tetrahydro-2H-pyran-4-yloxy)phenyl]ethanesulfonamide] | 
